{"source": "patent US20080069785A1", "about": "“PEST-CONTROL COMPOSITIONS, AND METHODS AND PRODUCTS UTILIZING SAME” (priority 2004, published 2008)", "tested_on": "cockroaches (Blattella germanica)", "test": "Weeklong surface area toxicity test on cockroaches (Example 19)", "assay_type": "in vivo", "settings": "for cockroaches alive (of five): 0-1 days; for cockroaches alive (of five per cup): 3-4 days treatment", "protocol": "In order determine the toxicity of the formulation to the insect after application to a surface over a period of time, the following test was performed. […] Cockroaches were placed in the cups on the first day following the application of the formulations, on the third day following the application of the formulations, and on the sixth day following the application of the formulations in order to monitor the toxicity of the formulations after a period of time had elapsed. The mortality of the cockroaches was then recorded at the time intervals noted. The five cockroaches placed in each cup were one week old cockroaches (Blattella germanica) which had been reared at twenty seven degrees centigrade, at sixty five percent relative humidity, and on a twelve hour light to dark photoperiod. Each of the cups had Fluon®AD1 treated sides to prevent the escape of the cockroaches.", "data": [{"smiles": "CCCCCCCCCC(C)=O", "note": "[Undecanone, 2-Undecanone]", "values": [{"measurement": "cockroaches alive (of five)", "setting": "0.02 μL/cm^2 (1 μL), 5 min", "result": 5}, {"measurement": "cockroaches alive (of five)", "setting": "0.02 μL/cm^2 (1 μL), 10 min", "result": 5}, {"measurement": "cockroaches alive (of five)", "setting": "0.02 μL/cm^2 (1 μL), 15 min", "result": 5}, {"measurement": "cockroaches alive (of five)", "setting": "0.02 μL/cm^2 (1 μL), 30 min", "result": 5}, {"measurement": "cockroaches alive (of five)", "setting": "0.02 μL/cm^2 (1 μL), 60 min", "result": 5}, {"measurement": "cockroaches alive (of five)", "setting": "0.02 μL/cm^2 (1 μL), 90 min", "result": 5}, {"measurement": "cockroaches alive (of five)", "setting": "0.02 μL/cm^2 (1 μL), 2 h", "result": 5}, {"measurement": "cockroaches alive (of five)", "setting": "0.02 μL/cm^2 (1 μL), 4 h", "result": 5}, {"measurement": "cockroaches alive (of five)", "setting": "0.02 μL/cm^2 (1 μL), 17.5 h", "result": 5}, {"measurement": "cockroaches alive (of five)", "setting": "0.02 μL/cm^2 (1 μL), 18 h", "result": 5}, {"measurement": "cockroaches alive (of five)", "setting": "0.02 μL/cm^2 (1 μL), 21 h", "result": 5}, {"measurement": "cockroaches alive (of five)", "setting": "0.02 μL/cm^2 (1 μL), 24 h", "result": 5}, {"measurement": "cockroaches alive (of five)", "setting": "0.02 μL/cm^2 (1 μL), 27.5 h", "result": 5}, {"measurement": "cockroaches alive (of five)", "setting": "0.02 μL/cm^2 (1 μL), 29 h", "result": 5}, {"measurement": "cockroaches alive (of five)", "setting": "0.02 μL/cm^2 (1 μL), 30 h", "result": 5}, {"measurement": "cockroaches alive (of five)", "setting": "0.09 μL/cm^2 (5 μL), 5 min", "result": 5}, {"measurement": "cockroaches alive (of five)", "setting": "0.09 μL/cm^2 (5 μL), 10 min", "result": 5}, {"measurement": "cockroaches alive (of five)", "setting": "0.09 μL/cm^2 (5 μL), 15 min", "result": 4}, {"measurement": "cockroaches alive (of five)", "setting": "0.09 μL/cm^2 (5 μL), 30 min", "result": 4}, {"measurement": "cockroaches alive (of five)", "setting": "0.09 μL/cm^2 (5 μL), 60 min", "result": 4}, {"measurement": "cockroaches alive (of five)", "setting": "0.09 μL/cm^2 (5 μL), 90 min", "result": 4}, {"measurement": "cockroaches alive (of five)", "setting": "0.09 μL/cm^2 (5 μL), 2 h", "result": 4}, {"measurement": "cockroaches alive (of five)", "setting": "0.09 μL/cm^2 (5 μL), 4 h", "result": 4}, {"measurement": "cockroaches alive (of five)", "setting": "0.09 μL/cm^2 (5 μL), 17.5 h", "result": 4}, {"measurement": "cockroaches alive (of five)", "setting": "0.09 μL/cm^2 (5 μL), 18 h", "result": 4}, {"measurement": "cockroaches alive (of five)", "setting": "0.09 μL/cm^2 (5 μL), 21 h", "result": 4}, {"measurement": "cockroaches alive (of five)", "setting": "0.09 μL/cm^2 (5 μL), 24 h", "result": 4}, {"measurement": "cockroaches alive (of five)", "setting": "0.09 μL/cm^2 (5 μL), 27.5 h", "result": 3}, {"measurement": "cockroaches alive (of five)", "setting": "0.09 μL/cm^2 (5 μL), 29 h", "result": 3}, {"measurement": "cockroaches alive (of five)", "setting": "0.09 μL/cm^2 (5 μL), 30 h", "result": 3}, {"measurement": "cockroaches alive (of five)", "setting": "0.19 μL/cm^2 (10 μL), 5 min", "result": 5}, {"measurement": "cockroaches alive (of five)", "setting": "0.19 μL/cm^2 (10 μL), 10 min", "result": 5}, {"measurement": "cockroaches alive (of five)", "setting": "0.19 μL/cm^2 (10 μL), 15 min", "result": 5}, {"measurement": "cockroaches alive (of five)", "setting": "0.19 μL/cm^2 (10 μL), 30 min", "result": 2}, {"measurement": "cockroaches alive (of five)", "setting": "0.19 μL/cm^2 (10 μL), 60 min", "result": 0}, {"measurement": "cockroaches alive (of five)", "setting": "0.19 μL/cm^2 (10 μL), 90 min", "result": 0}, {"measurement": "cockroaches alive (of five)", "setting": "0.19 μL/cm^2 (10 μL), 2 h", "result": 0}, {"measurement": "cockroaches alive (of five)", "setting": "0.19 μL/cm^2 (10 μL), 4 h", "result": 0}, {"measurement": "cockroaches alive (of five)", "setting": "0.19 μL/cm^2 (10 μL), 17.5 h", "result": 0}, {"measurement": "cockroaches alive (of five)", "setting": "0.19 μL/cm^2 (10 μL), 18 h", "result": 0}, {"measurement": "cockroaches alive (of five)", "setting": "0.19 μL/cm^2 (10 μL), 21 h", "result": 0}, {"measurement": "cockroaches alive (of five)", "setting": "0.19 μL/cm^2 (10 μL), 24 h", "result": 0}, {"measurement": "cockroaches alive (of five)", "setting": "0.19 μL/cm^2 (10 μL), 27.5 h", "result": 0}, {"measurement": "cockroaches alive (of five)", "setting": "0.19 μL/cm^2 (10 μL), 29 h", "result": 0}, {"measurement": "cockroaches alive (of five)", "setting": "0.19 μL/cm^2 (10 μL), 30 h", "result": 0}, {"measurement": "cockroaches alive (of five)", "setting": "0.95 μL/cm^2 (50 μL), 5 min", "result": 0}, {"measurement": "cockroaches alive (of five)", "setting": "0.95 μL/cm^2 (50 μL), 10 min", "result": 0}, {"measurement": "cockroaches alive (of five)", "setting": "0.95 μL/cm^2 (50 μL), 15 min", "result": 0}, {"measurement": "cockroaches alive (of five)", "setting": "0.95 μL/cm^2 (50 μL), 30 min", "result": 0}, {"measurement": "cockroaches alive (of five)", "setting": "0.95 μL/cm^2 (50 μL), 60 min", "result": 0}, {"measurement": "cockroaches alive (of five)", "setting": "0.95 μL/cm^2 (50 μL), 90 min", "result": 0}, {"measurement": "cockroaches alive (of five)", "setting": "0.95 μL/cm^2 (50 μL), 2 h", "result": 0}, {"measurement": "cockroaches alive (of five)", "setting": "0.95 μL/cm^2 (50 μL), 4 h", "result": 0}, {"measurement": "cockroaches alive (of five)", "setting": "0.95 μL/cm^2 (50 μL), 17.5 h", "result": 0}, {"measurement": "cockroaches alive (of five)", "setting": "0.95 μL/cm^2 (50 μL), 18 h", "result": 0}, {"measurement": "cockroaches alive (of five)", "setting": "0.95 μL/cm^2 (50 μL), 21 h", "result": 0}, {"measurement": "cockroaches alive (of five)", "setting": "0.95 μL/cm^2 (50 μL), 24 h", "result": 0}, {"measurement": "cockroaches alive (of five)", "setting": "0.95 μL/cm^2 (50 μL), 27.5 h", "result": 0}, {"measurement": "cockroaches alive (of five)", "setting": "0.95 μL/cm^2 (50 μL), 29 h", "result": 0}, {"measurement": "cockroaches alive (of five)", "setting": "0.95 μL/cm^2 (50 μL), 30 h", "result": 0}, {"measurement": "cockroaches alive (of five per cup)", "setting": "0.02 μL/cm^2 (1 μL), 5 min", "result": 5}, {"measurement": "cockroaches alive (of five per cup)", "setting": "0.02 μL/cm^2 (1 μL), 10 min", "result": 5}, {"measurement": "cockroaches alive (of five per cup)", "setting": "0.02 μL/cm^2 (1 μL), 15 min", "result": 5}, {"measurement": "cockroaches alive (of five per cup)", "setting": "0.02 μL/cm^2 (1 μL), 30 min", "result": 5}, {"measurement": "cockroaches alive (of five per cup)", "setting": "0.02 μL/cm^2 (1 μL), 60 min", "result": 5}, {"measurement": "cockroaches alive (of five per cup)", "setting": "0.02 μL/cm^2 (1 μL), 90 min", "result": 5}, {"measurement": "cockroaches alive (of five per cup)", "setting": "0.02 μL/cm^2 (1 μL), 2 h", "result": 5}, {"measurement": "cockroaches alive (of five per cup)", "setting": "0.02 μL/cm^2 (1 μL), 4 h", "result": 5}, {"measurement": "cockroaches alive (of five per cup)", "setting": "0.02 μL/cm^2 (1 μL), 23 h", "result": 5}, {"measurement": "cockroaches alive (of five per cup)", "setting": "0.02 μL/cm^2 (1 μL), 24 h", "result": 5}, {"measurement": "cockroaches alive (of five per cup)", "setting": "0.02 μL/cm^2 (1 μL), 27 h", "result": 5}, {"measurement": "cockroaches alive (of five per cup)", "setting": "0.02 μL/cm^2 (1 μL), 30 h", "result": 5}, {"measurement": "cockroaches alive (of five per cup)", "setting": "0.09 μL/cm^2 (5 μL), 5 min", "result": 5}, {"measurement": "cockroaches alive (of five per cup)", "setting": "0.09 μL/cm^2 (5 μL), 10 min", "result": 5}, {"measurement": "cockroaches alive (of five per cup)", "setting": "0.09 μL/cm^2 (5 μL), 15 min", "result": 5}, {"measurement": "cockroaches alive (of five per cup)", "setting": "0.09 μL/cm^2 (5 μL), 30 min", "result": 5}, {"measurement": "cockroaches alive (of five per cup)", "setting": "0.09 μL/cm^2 (5 μL), 60 min", "result": 5}, {"measurement": "cockroaches alive (of five per cup)", "setting": "0.09 μL/cm^2 (5 μL), 90 min", "result": 5}, {"measurement": "cockroaches alive (of five per cup)", "setting": "0.09 μL/cm^2 (5 μL), 2 h", "result": 5}, {"measurement": "cockroaches alive (of five per cup)", "setting": "0.09 μL/cm^2 (5 μL), 4 h", "result": 5}]}]}
